Results on 21 compounds are retold here after US20070270421A1, “Novel pyridine Derivative and Pyrimidine Derivative (1)” (priority 2004, published 2007).

The target of the assay is T1, HGFR (His6-HGFR cytoplasmic domain) (Homo sapiens, UniProt P08581).
T1 construct: made in house; host or cells: Spodoptera frugiperda Sf9 insect cells (baculovirus, pFastBac-HT)
As to the kind of experiment: Inhibitory activity against HGFR tyrosine kinase activity (HTRF). The assay is classed as biochemical. Particulars: biotin-poly(GT), ATP, 30° C. 10 min, read-out: IC50 (concentration necessary to inhibit HGFR kinase activity by 50%). From the text:
The cytoplasmic domain of HGFR (Genbank Accession No. J02958) is a 1.3 kb DNA fragment beginning with Lys974 and including a stop codon, and described by Park et al. (Proc. Natl. Acad. Sci. U.S.A. 84(18), 6379-6383, 1987). The DNA fragment was isolated from the human placental cDNA library (purchased from Clontech) by PCR (TaKaRa Ex Taq™ Kit, purchased from TaKaRa) using two kinds of primers (SEQ ID NO: 1, 5′-[…]-3′ and SEQ ID NO: 2, 5′-[…]-3′, purchased from Invitrogen). The DNA fragment was cloned into a baculovirus transplace vector (pFastBac™-HT (purchased from GIBCO BRL)) to produce a recombinant construct. The construct was transfected into insect cells (Spodoptera frugiperda 9 (Sf9)) to produce a solution of HGFR transfected baculovirus (preparation of a recombinant baculovirus can be found in the standard text (Bac-to-Bac Baculovirus Expression System (GIBCO BRL)). The cloning of the other receptor tyrosine kinases and preparation of the recombinant baculovirus solutions were performed using a cytoplasmic fragment starting from Lys791 (VEGFR2, Genbank Accession No. L04947), a cytoplasmic fragment starting from Lys398 (FGFR1, Genbank Accession No. X52833) and a cytoplasmic fragment starting from Lys558 (PDGFRβ, Genbank Accession No. M21616) in stead of HGFR in the above method. EGFR was purchased from Sigma (Production No. E-2645).
To the suspension of Sf9 cells (3×10^8 cells) in SF-900II medium (purchased from Invitrogen) containing 2% FBS was added a solution of HGFR transfected baculovirus above (4 ml), followed by a shaking culture at 27° C. for 48 hrs. The cells infected with the HGFR transfected baculovirus were centrifuged at 1,000 rpm, 4° C. for 5 min to remove the supernatant. The precipitated infected cells were suspended in 80 ml of ice-cold PBS, and centrifuged at 1,000 rpm, 4° C. for 5 min to remove the supernatant. The precipitated infected cells were suspended in 40 ml of ice-cold Lysis Buffer (50 mM Tris-HCl (pH 8.5), 5 mM 2-mercaptoethanol, 100 mM KCl, 1 mM PMSF and 1% (v/v) NP-40). The suspension was centrifuged at 12,000 rpm, 4° C. for 30 min to provide a supernatant.
The supernatant was loaded onto an Ni-NTA agarose column (3 ml, purchased from Qiagen) equilibrated with 30 ml of Buffer A (20 mM Tris-HCl (pH 8.5), 5 mM 2-mercaptoethanol, 500 mM KCl, 20 mM imidazole and 10% (v/v) glycerol). The column was washed with 30 ml of Buffer A, 6 ml of Buffer B (20 mM Tris-HCl (pH 8.5), 5 mM 2-mercaptoethanol, 1 M KCl, and 10% (v/v) glycerol) and 6 ml of Buffer A in this order. Then, the column was eluted with 6 ml of Buffer C (20 mM Tris-HCl (pH 8.5), 5 mM 2-mercaptoethanol, 100 mM KCl, 100 mM imidazole, and 10% (v/v) glycerol) to provide a fraction. The fraction was entrapped in a dialysis membrane (purchased from Spectrum Laboratories), dialyzed at 4° C. overnight with 1 L of dialysis buffer (20 mM Tris-HCl (pH 7.5), 10% (v/v) glycerol, 1 mM dithiothreitol, 0.1 mM Na3VO4 and 0.1 mM EGTA), and stored at −80° C. until used. An aliquot of the dialyzed fraction was subjected to SDS electrophoresis, and then a recombinant protein (His6-HGFR, the HGFR cytoplasmic domain fused with six histidine at the N terminus) detected at a molecular weight of about 60 kDa when stained with Coomassie Brilliant Blue, was determined with regard to protein content using BSA (purchased from Sigma) as a standard. The VEGFR2 cytoplasmic domain, the FGFR1 cytoplasmic domain, and the PDGFRβ cytoplasmic domain were fused with six histidine at the N terminus by the similar method to produce respective recombinant proteins (His6-VEGFR2, His6-FGFR1, and His6-PDGFRβ). […]
In general terms: In TR-FRET formats the signal depends on donor and acceptor labels being close together.

The structures appear in SMILES notation. Where only a bound is given, the exact number is not on record here.

T1 sequence (P08581 956-1390 limits assumed): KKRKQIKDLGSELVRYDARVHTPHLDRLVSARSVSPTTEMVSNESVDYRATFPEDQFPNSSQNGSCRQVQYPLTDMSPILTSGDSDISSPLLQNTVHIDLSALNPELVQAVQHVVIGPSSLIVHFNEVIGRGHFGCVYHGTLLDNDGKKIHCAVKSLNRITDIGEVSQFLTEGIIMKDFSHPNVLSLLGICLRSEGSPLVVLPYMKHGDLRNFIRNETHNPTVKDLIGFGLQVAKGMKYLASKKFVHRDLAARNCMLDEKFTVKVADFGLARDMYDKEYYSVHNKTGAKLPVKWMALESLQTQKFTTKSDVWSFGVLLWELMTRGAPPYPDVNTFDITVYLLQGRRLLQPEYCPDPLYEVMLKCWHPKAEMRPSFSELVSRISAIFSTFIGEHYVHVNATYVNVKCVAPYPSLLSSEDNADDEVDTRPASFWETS

Regarding `CN(C)C1CN(C2CCN(C(=O)Nc3cc(Oc4ccc(NC(=S)NC(=O)Cc5ccccc5)cc4F)ccn3)CC2)C1` [Example 373, 4-(3-Dimethylaminoazetidin-1-yl)piperidine-1-carboxylic acid {4-[2-fluoro-4-(3-phenylacetylthioureido)phenoxy]pyridin-2-yl}amide], the IC50 was 77 nM.
Take `CN1CC(N2CCN(C(=O)Nc3cc(Oc4ccc(NC(=S)NC(=O)Cc5ccc(F)cc5)cc4)ccn3)CC2)C1` [Example 337, 4-(1-Methylazetidin-3-yl)piperazine-1-carboxylic acid [4-(4-{3-[2-(4-fluorophenyl)acetyl]thioureido}phenoxy)pyridin-2-yl]amide]: the IC50 came to 150 nM.
On to `O=C(Cc1ccccc1)NC(=S)Nc1ccc(Oc2ccnc(NC(=O)N3CCC(CN4CCC4)CC3)c2)c(F)c1` [Example 395, 4-(Azetidin-1-ylmethyl)piperidine-1-carboxylic acid {4-[2-fluoro-4-(3-phenylacetylthioureido)phenoxy]pyridin-2-yl}amide], for which the IC50 was found to be 47 nM.
Turning to `CN(C)CC1CCN(C(=O)Nc2cc(Oc3ccc(NC(=S)NC(=O)Cc4ccc(F)cc4)cc3F)ncn2)CC1` [Example 180, 4-{[4-(Dimethylaminomethyl)piperidin-1-yl]carbonylamino}-6-(2-fluoro-4-{3-[2-(4-fluorophenyl)acetyl]thioureido}phenoxy)pyrimidine], the IC50 came out at 38 nM.
For the compound `CCN1CCC(N(C)C(=O)Nc2cc(Oc3ccc(NC(=S)NC(=O)Cc4ccc(F)cc4)cc3F)ncn2)CC1` [Example 285, 1-(1-Ethylpiperidin-4-yl)-3-[6-(2-fluoro-4-{3-[2-(4-fluorophenyl)acetyl]thioureido}phenoxy)pyrimidin-4-yl]-1-methylurea], the IC50 was 51 nM.
With `CN(C)C[C@@H]1CCCN(C(=O)Nc2cc(Oc3ccc(NC(=S)NC(=O)Cc4ccccc4)cc3F)ccn2)C1` [Example 335, (3S)-3-Dimethylaminomethylpiperidine-1-carboxylic acid {4-[2-fluoro-4-(3-phenylacetylthioureido)phenoxy]pyridin-2-yl}amide], the IC50 stood at 110 nM.
In the case of `CN(C)[C@H]1CCN(C(=O)Nc2cc(Oc3ccc(NC(=S)NC(=O)Cc4ccc(F)cc4)cc3F)ncn2)C1` [Example 254, 4-{[(3S)-3-Dimethylaminopyrrolidin-1-yl]carbonylamino}-6-(2-fluoro-4-{3-[2-(4-fluorophenyl)acetyl]thioureido}phenoxy)pyrimidine], the IC50 amounted to 83 nM.
On to `CN1CCC(N(C)C(=O)Nc2cc(Oc3ccc(NC(=O)NC(=O)Cc4ccc(F)cc4)c(F)c3)ccn2)CC1` [Example 290, 3-[4-(3-Fluoro-4-{3-[2-(4-fluorophenyl)acetyl]ureido}phenoxy)pyridin-2-yl]-1-methyl-1-(1-methylpiperidin-4-yl)urea], for which the IC50 is 130 nM.
Turning to `O=C(Cc1ccc(F)cc1)NC(=S)Nc1ccc(Oc2cc(NC(=O)N3CCCCC3)ncn2)c(F)c1` [Example 6, Piperidine-1-carboxylic acid [6-(2-fluoro-4-{3-[2-(4-fluorophenyl)acetyl]thioureido}phenoxy)pyrimidin-4-yl]amide], the IC50 amounted to 60 nM.
For `O=C(Cc1ccc(F)cc1)NC(=O)Nc1ccc(Oc2ccnc(NC(=O)N3CCN(CCN4CCC4)CC3)c2)cc1` [Example 389, 4-[2-(Azetidin-1-yl)ethyl]piperazine-1-carboxylic acid [4-(4-{3-[2-(4-fluorophenyl)acetyl]ureido}phenoxy)pyridin-2-yl]amide] the value was 130 nM.
On to `COc1ccccc1NC(=O)CC(=O)Nc1ccc(Oc2ccnc(NC(=O)N3CCCC3)c2)c(F)c1` [Example 60, N-(2-methoxyphenyl)-N′-(3-fluoro-4-{2-[(pyrrolidine-1-carbonyl)amino]pyridin-4-yloxy}phenyl)malonamide], for which the IC50 was determined as 49 nM.
With `CN(C)C[C@@H]1CCN(C(=O)Nc2cc(Oc3ccc(NC(=S)NC(=O)Cc4ccc(F)cc4)c(F)c3)ccn2)C1` [Example 219, (3S)-3-Dimethylaminomethylpyrrolidine-1-carboxylic acid [4-(3-fluoro-4-{3-[2-(4-fluorophenyl)acetyl]thioureido}phenoxy)pyridin-2-yl]amide], the IC50 amounted to 42 nM.
On to `CC(=O)Nc1cc(Oc2ccc(NC(=O)CC(=O)Nc3ccc(F)cc3)c(F)c2)ccn1` [Example 74, N-(4-Fluorophenyl)-N′-[4-(2-acetylaminopyridin-4-yloxy)-2-fluorophenyl]malonamide], for which the IC50 amounted to 33 nM.
For `O=C(CC(=O)Nc1c(F)cccc1F)Nc1ccc(Oc2ccnc(NC(=O)N3CCCC3)c2)c(F)c1` [Example 59, N-(2,6-Difluorophenyl)-N′-(3-fluoro-4-{2-[(pyrrolidine-1-carbonyl)amino]pyridin-4-yloxy}phenyl)malonamide], the IC50 was determined as 100 nM.
For the compound `CC(=O)N1CCC(N(C)C(=O)Nc2cc(Oc3ccc(NC(=S)NC(=O)Cc4ccc(F)cc4)cc3F)ncn2)CC1` [Example 314, 1-(1-Acetylpiperidin-4-yl)-3-[6-(2-fluoro-4-{3-[2-(4-fluorophenyl)acetyl]thioureido}phenoxy)pyrimidin-4-yl]-1-methylurea], the IC50 was 31 nM.
In the case of `CN(C)CCN1CCN(C(=O)Nc2cc(Oc3ccc(NC(=O)NC(=O)Cc4ccc(F)cc4)cc3F)ccn2)CC1` [Example 362, 2-{[4-(2-Dimethylaminoethyl)piperazin-1-yl]carbonylamino}-4-(2-fluoro-4-{3-[2-(4-fluorophenyl)acetyl]ureido}phenoxy)pyridine], the IC50 is 130 nM.
In the case of `O=C(CC(=O)Nc1ccc(Oc2ccnc(NC(=O)N3CCC3)c2)cc1Cl)Nc1ccc(F)cc1` [Example 64, N-(2-Chloro-4-{2-[(azetidine-1-carbonyl)amino]pyridin-4-yloxy}phenyl)-N′-(4-fluorophenyl)malonamide], the IC50 was determined as 59 nM.
On to `O=C(Cc1ccc(F)cc1)NC(=O)Nc1ccc(Oc2ccnc(NC(=O)N3CCC(CN4CCCC4)CC3)c2)cc1` [Example 390, 4-(Pyrrolidin-1-ylmethyl)piperidine-1-carboxylic acid [4-(4-{3-[2-(4-fluorophenyl)acetyl]ureido}phenoxy)pyridin-2-yl]amide], for which the IC50 worked out at 120 nM.
For the compound `CN(C)CC1CCN(C(=O)Nc2cc(Oc3ccc(NC(=S)NC(=O)Cc4ccccc4)cc3F)ccn2)CC1` [Example 311, 2-{[4-(Dimethylaminomethyl)piperidin-1-yl]carbonylamino}-4-(2-fluoro-4-{3-[2-(phenyl)acetyl]thioureido}phenoxy)pyridine], the IC50 was found to be 48 nM.
For `O=C(CC(=O)NC1CCCCCC1)Nc1ccc(Oc2ccnc(NC(=O)N3CCCC3)c2)c(F)c1` [Example 61, N-Cycloheptyl-N′-(3-fluoro-4-{2-[(pyrrolidine-1-carbonyl)amino]pyridin-4-yloxy}phenyl)malonamide] the value was below 30 nM; for `O=C(Cc1ccccc1)NC(=S)Nc1ccc(Oc2cc(NC(=O)N3CCC(CN4CCC4)CC3)ncn2)c(F)c1` [Example 393, 4-(Azetidin-1-ylmethyl)piperidine-1-carboxylic acid {6-[2-fluoro-4-(3-phenylacetylthioureido)phenoxy]pyrimidin-4-yl}amide], 56 nM.
